molecular target: T1, Plättchenlipoxygenase (Homo sapiens, UniProt P18054); experiment: Inhibition of platelet lipoxygenase (HETE synthesis), metabolism of radiolabelled arachidonic acid in washed human platelets; assay type: cell-based; conditions: HETE-Synthese, gewaschene Humanthrombozyten; lowest concentration giving at least 50 % inhibition
T1 construct: der Metabolismus radioaktiv markierter Arachidonsäure an gewaschenen Humanthrombozyten herangezogen; endogenous in cells; host or cells: washed human platelets
T1 sequence (P18054 1-663): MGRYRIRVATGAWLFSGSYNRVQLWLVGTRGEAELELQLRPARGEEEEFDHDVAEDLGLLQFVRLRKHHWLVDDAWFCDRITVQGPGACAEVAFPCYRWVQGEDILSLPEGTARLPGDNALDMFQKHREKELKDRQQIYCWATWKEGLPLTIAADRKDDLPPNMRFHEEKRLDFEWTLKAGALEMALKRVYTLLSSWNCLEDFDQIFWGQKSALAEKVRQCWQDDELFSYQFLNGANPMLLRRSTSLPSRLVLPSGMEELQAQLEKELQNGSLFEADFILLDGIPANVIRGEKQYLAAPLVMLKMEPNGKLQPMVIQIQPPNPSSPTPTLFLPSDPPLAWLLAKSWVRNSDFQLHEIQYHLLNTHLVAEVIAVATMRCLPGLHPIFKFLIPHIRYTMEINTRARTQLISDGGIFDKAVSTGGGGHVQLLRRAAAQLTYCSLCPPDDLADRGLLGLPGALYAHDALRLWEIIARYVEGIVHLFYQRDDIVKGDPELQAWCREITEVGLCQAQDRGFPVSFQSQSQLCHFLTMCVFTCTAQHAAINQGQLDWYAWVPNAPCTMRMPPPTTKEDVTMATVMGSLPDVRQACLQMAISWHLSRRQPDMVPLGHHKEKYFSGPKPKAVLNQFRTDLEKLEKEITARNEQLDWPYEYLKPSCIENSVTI
From the text: Der Nachweis der lipoxygenasehemmenden Eigenschaften der Sulfenamide erfolgt analog der Methode von Bailey et al., J. Biol. Chem. 255, 5996, (1980) und nach Blackwell und Flower, Brostaglandins 16, 417 (1979). Bei dieser Testmethode wird der Metabolismus radioaktiv markierter Arachidonsäure an gewaschenen Humanthrombozyten herangezogen. Bei diesem in vitro Test werden die radioaktiv markierten Metaboliten aus dem Reaktionsansatz extrahiert und dünnschichtchromatographisch getrennt. Das Autoradiogramm wird am Dünnschicht-Scanner ausgewertet. Bei diesen Testbedingungen werden die markierten Metaboliten von der nicht umgesetzten Arachidonsäure getrennt und sind anschließend quantitativ auswertbar. Die Verteilung der Radioaktivität auf die während der Metabolisierung gebildeten Cyclooxygenaseprodukte Thromboxan B2 (TXB2) und 12-Hydroxy-5,8,10-heptadekatriensäure (HHT) bzw. das Lipoxygenaseprodukt 12-Hydroxy-5,8,11,14-eikosatetraensäure (HETE) unter dem Einfluß der Inhibitoren stellt ein Maß für die Hemmung der Enzyme dar.
Die Lipoxygenasehemmung der erfindungsgemäßen Sulfenamide läßt sich an der Hemmung der HETE-Synthese messen.. Es zeigt sich, daß die Synthese von TXB2und von HHT unbeeinflußt bleibt, während der Arachidonsäureumsatz abnimmt. Wie aus der nachfolgenden Tabelle ersichtlich ist, bewirken die Sulfenamide eine signifikante Hemmung der Plättchenlipoxygenase (HETE-Synthese).
Hemmung der Plättchenlipoxygenase (HETE-Synthese)

Row | Minimale effektive Hemmkonzen-zentration (mindestens 50 % Hemmung) | SMILES
1 | 10^-6 g/ml | Clc1c(Cl)c(Cl)c(SNc2ncccn2)c(Cl)c1Cl [Beispiel 4]
2 | 3e-06 g/mL | c1ccc(SNc2nc(-c3ccccc3)ns2)cc1 [Beispiel 12]
3 | 3e-06 g/mL | Cc1nsc(NSc2ccccc2)n1 [Beispiel 16]
4 | 10^-6 g/ml | Cc1nc(NSc2ccccc2)ns1 [Beispiel 18]
5 | 3e-06 g/mL | CCCc1nsc(NSc2ccccc2)n1 [Beispiel 19]
6 | 10^-5 g/ml | Clc1ccc(SNc2ccccn2)cc1 [Beispiel 23]
7 | 3e-06 g/mL | O=C1C(Sc2ccccc2)C(NSc2ccccc2)=NN1c1ccccc1 (stereo not drawn) [Beispiel 24]

The next lines start with the compound.

Row | SMILES | Minimale effektive Hemmkonzen-zentration (mindestens 50 % Hemmung)
8 | c1ccc(SNc2ncccn2)cc1 [Beispiel 2] | 10^-6 g/ml
9 | Clc1ccc(SNc2ncccn2)cc1 [Beispiel 5] | 10^-6 g/ml
10 | CC(C)(C)c1ccc(SNc2ncccn2)cc1 [Beispiel 6] | 10^-6 g/ml
11 | Clc1ccc(SNc2nc[nH]n2)cc1 [Beispiel 10] | 3e-06 g/mL
12 | Clc1ccc(SNc2nc(-c3ccccc3)ns2)cc1 [Beispiel 13] | 10^-6 g/ml
13 | Cc1nsc(NSc2ccc(Cl)cc2)n1 [Beispiel 17] | 10^-6 g/ml
14 | CCCc1nsc(NSc2ccc(Cl)cc2)n1 [Beispiel 20] | 3e-06 g/mL

system: Leukozytenmigration; experiment: Inhibition of leukocyte migration, drug-soaked sponge implanted under the dorsal skin of rats; assay type: in vivo, Ratten; conditions: Dosis, lokal 10 mg/Ratte; sponge soaked with compound under the dorsal skin
From the text: Die erfindungsgemäßen Sulfenamide sind auch […] wirksam. Diese Wirkung wird durch die Messung der Hemmung der Leukozytenmigration nach an sich bekannten Methoden nachgewiesen (vgl. Higgs et al., Biochemical Pharmacology 28, 1959 (1979) und Eur. J. Pharmacol. 66, 81 (1980)). In der nachfolgenden Tabelle 2 sind die Wirkungen einiger beispielhafter Sulfenamide nach lokaler Applikation, durch Einführen eines mit Wirkstoff getränkten Schwämmchens unter die Rückenhaut von Ratten, zusammengefaßt.

Row | SMILES | Hemmung der Leukozyten-migration (Kontrolle = 0 %) [%]
15 | c1ccc(SNc2ncccn2)cc1 [Beispiel 2] | 45
16 | c1ccc(SNc2nc[nH]n2)cc1 [Beispiel 11] | 76
17 | c1ccc(SNc2nc(-c3ccccc3)ns2)cc1 [Beispiel 12] | 35
18 | Cc1nsc(NSc2ccccc2)n1 [Beispiel 16] | 67
19 | Cc1nsc(NSc2ccc(Cl)cc2)n1 [Beispiel 17] | 53
20 | Cc1nnc(NSc2ccccc2)s1 [Beispiel 25] | 80
21 | FC(F)(F)c1cc(SNc2nc[nH]n2)ccc1Cl [Beispiel 28] | 29
22 | COC(=O)c1ccc(SNc2nc[nH]n2)cc1 [Beispiel 30] | 31
23 | Clc1ccc(SNc2nnc(N3CCOCC3)s2)cc1 [Beispiel 37] | 22
24 | Cc1nnc(NSc2ccc(Cl)cc2)s1 [Beispiel 39] | 60

Source: patent publication EP0065226A2, “Sulfenamides, process for their preparation, their utilisation as medicines and their preparation” (BAYER AG, priority 1981, dated 1982)
